Reference: ChEMBL document CHEMBL1201862, “PubChem BioAssay data set” (2004)
The source made the active and inactive calls.

Key:
SUMO-activating enzyme [1] = molecular target: T1, SUMO-activating enzyme (Homo sapiens, UniProt Q9UBT2); assay: blockers of SAE1/SAE2–UBC9 SUMO transfer – biochemical, HTRF, uHTS, primary screen (AID 2006); format: protein-complex assay
SUMO-activating enzyme [2] = molecular target: T1, SUMO-activating enzyme; assay: blockers of UBC9-mediated SUMO conjugation – biochemical, AlphaScreen, SUMOylation inhibitor project, confirmation (AID 2018); format: functional
[3] = molecular target: T2, Voltage-gated N-type calcium channel alpha-1B subunit/Amyloid beta A4 precursor protein-binding family A member 1 (Homo sapiens, UniProt Q00975+Q02410); format: protein assay
T2 sequence (Q00975 whole entry): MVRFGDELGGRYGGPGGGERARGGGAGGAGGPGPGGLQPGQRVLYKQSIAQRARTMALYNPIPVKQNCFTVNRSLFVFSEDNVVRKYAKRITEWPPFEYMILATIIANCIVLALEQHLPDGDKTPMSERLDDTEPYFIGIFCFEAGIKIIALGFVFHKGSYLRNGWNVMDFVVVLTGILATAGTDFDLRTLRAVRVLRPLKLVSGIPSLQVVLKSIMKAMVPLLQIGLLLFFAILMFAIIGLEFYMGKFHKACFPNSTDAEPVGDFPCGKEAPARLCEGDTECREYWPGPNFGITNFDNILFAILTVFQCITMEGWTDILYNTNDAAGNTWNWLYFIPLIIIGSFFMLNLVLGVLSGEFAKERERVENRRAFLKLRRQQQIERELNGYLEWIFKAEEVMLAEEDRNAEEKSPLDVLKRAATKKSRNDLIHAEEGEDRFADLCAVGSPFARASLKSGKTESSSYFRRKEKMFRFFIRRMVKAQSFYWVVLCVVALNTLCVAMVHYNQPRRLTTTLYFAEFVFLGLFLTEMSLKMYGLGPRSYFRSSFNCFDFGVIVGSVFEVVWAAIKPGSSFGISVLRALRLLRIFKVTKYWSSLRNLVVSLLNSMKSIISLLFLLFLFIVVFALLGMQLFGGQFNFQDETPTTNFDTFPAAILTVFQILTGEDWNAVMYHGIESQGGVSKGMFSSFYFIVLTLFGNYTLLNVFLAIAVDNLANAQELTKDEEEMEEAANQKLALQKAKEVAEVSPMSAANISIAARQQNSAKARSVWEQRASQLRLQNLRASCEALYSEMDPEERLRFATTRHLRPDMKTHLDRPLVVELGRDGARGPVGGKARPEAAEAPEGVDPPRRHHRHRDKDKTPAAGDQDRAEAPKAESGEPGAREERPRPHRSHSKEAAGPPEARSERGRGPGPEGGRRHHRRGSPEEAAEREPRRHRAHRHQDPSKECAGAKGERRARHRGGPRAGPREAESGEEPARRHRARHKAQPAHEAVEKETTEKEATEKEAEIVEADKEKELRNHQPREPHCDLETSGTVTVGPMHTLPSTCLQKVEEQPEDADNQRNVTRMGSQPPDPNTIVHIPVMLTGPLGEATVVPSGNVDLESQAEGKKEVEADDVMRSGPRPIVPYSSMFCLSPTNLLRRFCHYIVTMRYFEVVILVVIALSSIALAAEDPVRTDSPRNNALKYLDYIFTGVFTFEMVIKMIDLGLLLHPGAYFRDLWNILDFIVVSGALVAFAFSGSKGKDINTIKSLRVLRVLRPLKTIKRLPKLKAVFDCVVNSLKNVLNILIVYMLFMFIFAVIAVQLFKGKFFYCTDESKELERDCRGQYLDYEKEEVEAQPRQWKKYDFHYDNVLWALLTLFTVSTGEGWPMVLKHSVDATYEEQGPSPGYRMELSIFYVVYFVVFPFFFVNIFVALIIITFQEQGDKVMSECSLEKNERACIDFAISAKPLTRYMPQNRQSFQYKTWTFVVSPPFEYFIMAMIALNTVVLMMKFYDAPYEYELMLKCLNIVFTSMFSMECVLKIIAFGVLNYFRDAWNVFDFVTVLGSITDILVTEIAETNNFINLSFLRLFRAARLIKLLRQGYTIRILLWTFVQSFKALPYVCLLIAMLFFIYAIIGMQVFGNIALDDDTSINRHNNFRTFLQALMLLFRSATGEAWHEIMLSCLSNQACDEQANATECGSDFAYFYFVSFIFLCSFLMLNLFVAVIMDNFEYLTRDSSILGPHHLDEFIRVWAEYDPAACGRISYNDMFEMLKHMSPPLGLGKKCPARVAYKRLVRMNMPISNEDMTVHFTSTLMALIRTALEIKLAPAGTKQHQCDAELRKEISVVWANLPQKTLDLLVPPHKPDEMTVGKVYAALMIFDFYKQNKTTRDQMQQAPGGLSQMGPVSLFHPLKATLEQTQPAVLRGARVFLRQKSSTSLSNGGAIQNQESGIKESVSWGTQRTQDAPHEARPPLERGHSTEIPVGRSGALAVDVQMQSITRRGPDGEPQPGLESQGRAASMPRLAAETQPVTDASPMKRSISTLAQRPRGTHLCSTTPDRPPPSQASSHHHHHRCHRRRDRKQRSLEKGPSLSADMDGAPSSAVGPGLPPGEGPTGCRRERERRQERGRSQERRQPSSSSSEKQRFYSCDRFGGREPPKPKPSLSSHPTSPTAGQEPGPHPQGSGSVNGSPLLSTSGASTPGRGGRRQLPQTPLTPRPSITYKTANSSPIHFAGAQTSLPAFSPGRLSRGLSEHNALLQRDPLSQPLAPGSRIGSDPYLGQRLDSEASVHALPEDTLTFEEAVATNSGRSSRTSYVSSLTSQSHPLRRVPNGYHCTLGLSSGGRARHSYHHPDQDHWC
T2 sequence (Q02410 whole entry): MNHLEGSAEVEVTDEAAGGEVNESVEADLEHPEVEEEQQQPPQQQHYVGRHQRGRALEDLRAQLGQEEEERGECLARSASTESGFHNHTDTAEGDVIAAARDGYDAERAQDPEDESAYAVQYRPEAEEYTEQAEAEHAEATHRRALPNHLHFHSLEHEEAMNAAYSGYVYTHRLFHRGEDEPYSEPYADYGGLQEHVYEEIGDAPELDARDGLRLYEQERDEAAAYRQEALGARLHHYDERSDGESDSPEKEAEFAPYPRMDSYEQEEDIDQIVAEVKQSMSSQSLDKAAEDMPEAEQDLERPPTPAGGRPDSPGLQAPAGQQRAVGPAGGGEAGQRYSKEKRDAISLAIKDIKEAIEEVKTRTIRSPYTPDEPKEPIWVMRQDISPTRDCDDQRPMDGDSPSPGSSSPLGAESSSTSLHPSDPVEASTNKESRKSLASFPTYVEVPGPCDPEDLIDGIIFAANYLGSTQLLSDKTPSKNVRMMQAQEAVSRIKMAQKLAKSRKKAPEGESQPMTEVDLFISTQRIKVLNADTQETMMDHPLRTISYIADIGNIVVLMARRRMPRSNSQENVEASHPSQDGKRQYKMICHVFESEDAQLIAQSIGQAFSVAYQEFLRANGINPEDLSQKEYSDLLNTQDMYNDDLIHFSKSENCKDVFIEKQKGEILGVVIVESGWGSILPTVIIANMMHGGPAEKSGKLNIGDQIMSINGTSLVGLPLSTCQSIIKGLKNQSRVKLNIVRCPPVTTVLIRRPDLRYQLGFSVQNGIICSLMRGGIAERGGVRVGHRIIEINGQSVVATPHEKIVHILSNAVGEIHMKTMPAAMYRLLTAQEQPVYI

[4] = molecular target: T2, Voltage-gated N-type calcium channel alpha-1B subunit/Amyloid beta A4 precursor protein-binding family A member 1; format: protein assay; remark: listed apart in the source
[5] = molecular target: T3, Acyl-homoserine lactone acylase PvdQ (Pseudomonas aeruginosa (strain LESB58), UniProt Q9I194); assay: PvdQ acylase enzyme activity blockers – biochemical, fluorescence, plate reader and imaging, cherry-picks, dose response (AID 493231)
T3 sequence (Q9I194 whole entry): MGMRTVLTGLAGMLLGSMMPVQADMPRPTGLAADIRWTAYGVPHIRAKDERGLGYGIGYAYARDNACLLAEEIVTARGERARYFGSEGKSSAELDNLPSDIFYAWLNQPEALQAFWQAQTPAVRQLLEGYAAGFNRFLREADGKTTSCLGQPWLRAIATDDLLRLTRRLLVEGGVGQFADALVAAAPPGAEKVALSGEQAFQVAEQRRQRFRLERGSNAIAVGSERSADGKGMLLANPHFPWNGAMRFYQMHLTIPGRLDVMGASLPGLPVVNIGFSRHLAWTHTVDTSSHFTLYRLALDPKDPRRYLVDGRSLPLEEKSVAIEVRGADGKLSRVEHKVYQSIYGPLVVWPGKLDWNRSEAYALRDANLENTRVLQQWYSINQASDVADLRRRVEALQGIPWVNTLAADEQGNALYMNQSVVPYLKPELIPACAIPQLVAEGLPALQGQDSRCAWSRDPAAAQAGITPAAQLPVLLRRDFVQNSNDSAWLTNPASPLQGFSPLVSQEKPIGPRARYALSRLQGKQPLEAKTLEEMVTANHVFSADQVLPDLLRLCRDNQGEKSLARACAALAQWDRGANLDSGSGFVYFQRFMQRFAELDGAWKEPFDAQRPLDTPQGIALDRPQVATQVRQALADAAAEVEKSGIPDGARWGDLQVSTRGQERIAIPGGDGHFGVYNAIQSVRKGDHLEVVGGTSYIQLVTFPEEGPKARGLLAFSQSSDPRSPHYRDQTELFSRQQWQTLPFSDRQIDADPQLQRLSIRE

Cytochrome P450 2C9 = Cytochrome P450 2C9 (Homo sapiens, UniProt P11712)
Cytochrome P450 3A4 = Cytochrome P450 3A4 (Homo sapiens, UniProt P08684); details: Potency;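 further: confirmatory qHTS run detecting inhibitors and substrates of CYP3A4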
Cytochrome P450 3A4, sequence (P08684 whole entry): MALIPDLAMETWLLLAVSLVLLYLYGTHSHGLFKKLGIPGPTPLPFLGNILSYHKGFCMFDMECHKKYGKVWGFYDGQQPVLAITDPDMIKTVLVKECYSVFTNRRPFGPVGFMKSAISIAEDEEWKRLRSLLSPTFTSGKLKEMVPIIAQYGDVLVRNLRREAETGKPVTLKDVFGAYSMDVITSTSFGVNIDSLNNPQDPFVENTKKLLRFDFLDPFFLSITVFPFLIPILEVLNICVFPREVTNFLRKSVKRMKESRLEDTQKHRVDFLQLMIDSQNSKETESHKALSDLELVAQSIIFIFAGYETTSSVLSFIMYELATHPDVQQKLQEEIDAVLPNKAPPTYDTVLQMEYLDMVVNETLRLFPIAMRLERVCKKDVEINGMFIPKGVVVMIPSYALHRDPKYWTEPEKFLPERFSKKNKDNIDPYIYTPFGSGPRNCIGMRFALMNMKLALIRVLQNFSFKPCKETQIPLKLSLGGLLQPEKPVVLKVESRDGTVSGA

[6] = molecular target: Induced myeloid leukemia cell differentiation protein Mcl-1 (Homo sapiens, UniProt Q07820); format: functional
Induced myeloid leukemia cell differentiation protein Mcl-1, sequence (Q07820 whole entry): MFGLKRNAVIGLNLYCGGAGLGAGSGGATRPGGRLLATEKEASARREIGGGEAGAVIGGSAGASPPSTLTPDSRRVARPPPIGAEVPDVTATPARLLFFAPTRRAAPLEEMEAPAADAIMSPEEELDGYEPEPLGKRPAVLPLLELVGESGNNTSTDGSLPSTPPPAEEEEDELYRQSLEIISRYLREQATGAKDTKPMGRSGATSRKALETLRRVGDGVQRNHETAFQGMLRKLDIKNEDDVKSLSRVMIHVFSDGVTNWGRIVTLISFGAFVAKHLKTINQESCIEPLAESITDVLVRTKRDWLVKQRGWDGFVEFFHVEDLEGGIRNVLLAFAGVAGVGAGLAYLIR

[7] = molecular target: Glucose-6-phosphate 1-dehydrogenase (Homo sapiens, UniProt P11413); assay: inhibition of Homo sapiens G6PD, dose series – biochemical, fluorescence, selectivity assay for P. falciparum G6PD inhibitor project, dose response (AID 504792); format: functional
[8] = molecular target: DNA dC->dU-editing enzyme APOBEC-3G (Homo sapiens, UniProt Q9HC16); assay: Dose Response confirmation of small molecule APOBEC3G DNA Deaminase Inhibitors via a fluorescence-based single-stranded DNA deaminase assay. [Related pubchem assays (depositor defined):AID493012, AID493028]; format: functional
DNA dC->dU-editing enzyme APOBEC-3G, sequence (Q9HC16 whole entry): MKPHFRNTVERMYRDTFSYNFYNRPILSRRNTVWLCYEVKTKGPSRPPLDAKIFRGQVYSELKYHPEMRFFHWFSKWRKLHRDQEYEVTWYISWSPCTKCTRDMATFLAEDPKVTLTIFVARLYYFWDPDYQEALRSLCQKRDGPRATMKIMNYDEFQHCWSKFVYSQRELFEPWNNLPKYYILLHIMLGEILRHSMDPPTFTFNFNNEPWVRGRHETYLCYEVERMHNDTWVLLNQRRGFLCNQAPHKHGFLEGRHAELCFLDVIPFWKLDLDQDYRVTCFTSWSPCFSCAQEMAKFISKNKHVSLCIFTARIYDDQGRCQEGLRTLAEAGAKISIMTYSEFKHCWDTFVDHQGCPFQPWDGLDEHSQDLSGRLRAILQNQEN

Beta-galactosidase = Beta-galactosidase (Escherichia coli, UniProt Q8VNN2); assay: detection-enzyme interference by beta-gal modulators – biochemical, E. coli enzyme, set 3, artefact control for CCR6 antagonist project, dose response (AID 504712); format: functional
[9] = molecular target: Heat shock protein HSP 90-alpha (Homo sapiens, UniProt P07900); format: functional, organism-based
[10] = molecular target: DNA dC->dU-editing enzyme APOBEC-3A (Homo sapiens, UniProt P31941); assay: A3A deaminase inhibition for selectivity – biochemical, dose response (AID 504722); format: functional
DNA dC->dU-editing enzyme APOBEC-3A, sequence (P31941 whole entry): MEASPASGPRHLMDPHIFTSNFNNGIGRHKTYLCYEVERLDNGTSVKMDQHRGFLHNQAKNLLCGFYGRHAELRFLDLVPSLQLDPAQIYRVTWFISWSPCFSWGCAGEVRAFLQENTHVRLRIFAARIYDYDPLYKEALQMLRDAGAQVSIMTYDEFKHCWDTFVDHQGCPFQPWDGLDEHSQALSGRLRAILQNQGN

Estrogen receptor = molecular target: T4, Estrogen receptor (Homo sapiens, UniProt P03372);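 further: potency for inhibiting coactivator peptide recruitment to the receptor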
T4 sequence (P03372 whole entry): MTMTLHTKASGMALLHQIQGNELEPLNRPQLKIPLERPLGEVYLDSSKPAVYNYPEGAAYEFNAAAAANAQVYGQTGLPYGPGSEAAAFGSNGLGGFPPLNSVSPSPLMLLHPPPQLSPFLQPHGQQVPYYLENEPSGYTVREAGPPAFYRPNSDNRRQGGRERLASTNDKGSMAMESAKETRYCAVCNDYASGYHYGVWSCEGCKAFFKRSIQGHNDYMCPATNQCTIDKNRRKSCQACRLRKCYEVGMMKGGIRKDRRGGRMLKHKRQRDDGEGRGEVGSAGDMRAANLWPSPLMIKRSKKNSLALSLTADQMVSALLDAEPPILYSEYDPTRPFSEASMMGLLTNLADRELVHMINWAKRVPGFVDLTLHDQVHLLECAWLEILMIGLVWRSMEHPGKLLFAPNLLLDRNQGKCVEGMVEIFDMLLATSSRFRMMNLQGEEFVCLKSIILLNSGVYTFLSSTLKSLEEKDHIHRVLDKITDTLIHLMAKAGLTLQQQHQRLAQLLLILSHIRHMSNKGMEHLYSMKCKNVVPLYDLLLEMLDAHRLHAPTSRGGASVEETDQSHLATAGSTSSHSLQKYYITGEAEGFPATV

[11] = NIH3T3 cell viability loss – ATP luminescence, mouse fibroblasts, counter-screen, dose response (AID 2010); format: functional, cell-based;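 further: cells exposed to compound for about 90 hours before reading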
[12] = Trypanosoma cruzi growth suppression in host cells – NIH3T3 host cells, beta-gal luminescence, confirmation (AID 2044); format: functional, cell-based;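 further: intracellular parasites grown in NIH/3T3 mouse fibroblasts as host cells; luminescent beta-galactosidase reporter signal from transgenic T. cruzi replicating inside host cells; inhibitors lower the luminescence signal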
[13] = molecular target: Glyceraldehyde-3-phosphate dehydrogenase (Homo sapiens, UniProt P04406)
Glyceraldehyde-3-phosphate dehydrogenase, sequence (P04406 whole entry): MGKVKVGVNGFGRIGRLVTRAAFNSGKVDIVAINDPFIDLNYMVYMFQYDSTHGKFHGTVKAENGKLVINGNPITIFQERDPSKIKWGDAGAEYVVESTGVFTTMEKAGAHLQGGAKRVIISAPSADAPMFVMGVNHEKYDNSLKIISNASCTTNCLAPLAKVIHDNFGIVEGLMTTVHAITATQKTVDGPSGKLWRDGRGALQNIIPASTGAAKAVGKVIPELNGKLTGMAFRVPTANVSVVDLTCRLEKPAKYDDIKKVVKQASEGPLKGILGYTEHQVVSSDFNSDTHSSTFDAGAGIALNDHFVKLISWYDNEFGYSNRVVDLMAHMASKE

[14] = A cytotoxicity screen of small molecule inhibitors of the PhoP region in Salmonella typhi identified in the primary screen. [Related pubchem assays: 1850, 1864, 1985 ]; format: functional
[15] = HEK-293T cell viability reduction – luminescence, B-cell screen hits, cytotoxicity control for BCR NF-kB inhibitor project, dose response (AID 489021); format: functional, cell-based;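 further: HEK-293T cells carrying an NF-kB luciferase reporter; cells exposed to compound for about 14 hours before viability readout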
HEK293 = assay: EBV LMP1 TES2 canonical NF-kB signalling blockers – cell-based, HEK293, luciferase, cherry-pick, dose response (AID 588343); format: functional; details: Homo sapiens

CCOc1ccc(NC(=O)c2ccc(NC(=O)c3ccc(CN4CCOCC4)cc3)cc2)cc1
IC50 (SUMO-activating enzyme [1]): 25.1 µM (active) | IC50 (SUMO-activating enzyme [2]): 22.4 µM (active) | IC50 [3]: > 50 µM (inactive) | IC50 [4]: 10.1 µM (active)

c1ccc2cc(-c3csnn3)ccc2c1
AC50 [5]: 75.6 µM (active) | AC50 (Cytochrome P450 2C9): 14.1 µM (inconclusive)

O=S1OCC2C(CO1)C1(Cl)C(Cl)=C(Cl)C2(Cl)C1(Cl)Cl (stereo not drawn) [ENDOSULFAN]
AC50 (Cytochrome P450 3A4): 2.51 µM (inconclusive)

COC(=O)[C@@H]1C[C@@H]2CC[C@@H](O)C[C@@H]2N1Cc1ccc(N2CCN(C)CC2)cc1
AC50 (Cytochrome P450 3A4): 10 µM (inconclusive)

COc1cc(/C=N\Nc2nc(-c3ccc(C)cc3)c(NC(C)=O)s2)ccc1O
IC50 [6]: 3.02 µM (not active)

O=C1C=CC(=O)N1c1ccc(N2CCCCC2)cc1
IC50 [7]: > 80 µM (inactive) | IC50 [8]: 7.13 µM (active) | IC50 (Beta-galactosidase): > 66.6 µM (inactive) | AC50 [9]: 0.554 µM (active) | IC50 [10]: > 100 µM (inactive) | IC50 [3]: 3.07 µM (active) | IC50 [4]: 9.34 µM (active)

CCn1c2ccccc2c2cc(NC(=O)CSc3nnc(-c4ccc(OC)cc4)n3N)ccc21
IC50 (Estrogen receptor): 12.2 µM (active)

CCOC(=O)c1ccc(NC(=O)CSc2nnc(CNc3ccc(OC)cc3)n2C)cc1
IC50 (Estrogen receptor): > 50 µM (not active)

Cc1cccc(-c2nc(Nc3ccc(N4CCOCC4)cc3)c3ccccc3n2)c1
IC50 [6]: > 54 µM (active) | EC50 [11]: > 60 µM (not active) | EC50 [12]: 1.23 µM (active)

COc1cccc(N2CCN(C3=C(Cl)C(=O)N(c4cccc(OC)c4)C3=O)CC2)c1
IC50 [13]: > 50 µM (inconclusive)

Oc1ccc(-c2nc3ncccn3c2Nc2ccc3c(c2)OCCO3)cc1
EC50 [14]: > 50 µM (active)

CCOC(=O)/C=C(\C)Sc1cc(=O)oc2ccccc12
AC50 [5]: 8.71 µM (active) | IC50 [15]: > 80 µM (inactive) | AC50 (HEK293): 12 µM (active)

Cc1ccsc1-c1nnc(S)n1CC(C)C
IC50 [8]: 5.9 µM (active) | IC50 [10]: > 100 µM (inactive)
